Structures are written as SMILES.

T1 sequence (Q96P20 whole entry): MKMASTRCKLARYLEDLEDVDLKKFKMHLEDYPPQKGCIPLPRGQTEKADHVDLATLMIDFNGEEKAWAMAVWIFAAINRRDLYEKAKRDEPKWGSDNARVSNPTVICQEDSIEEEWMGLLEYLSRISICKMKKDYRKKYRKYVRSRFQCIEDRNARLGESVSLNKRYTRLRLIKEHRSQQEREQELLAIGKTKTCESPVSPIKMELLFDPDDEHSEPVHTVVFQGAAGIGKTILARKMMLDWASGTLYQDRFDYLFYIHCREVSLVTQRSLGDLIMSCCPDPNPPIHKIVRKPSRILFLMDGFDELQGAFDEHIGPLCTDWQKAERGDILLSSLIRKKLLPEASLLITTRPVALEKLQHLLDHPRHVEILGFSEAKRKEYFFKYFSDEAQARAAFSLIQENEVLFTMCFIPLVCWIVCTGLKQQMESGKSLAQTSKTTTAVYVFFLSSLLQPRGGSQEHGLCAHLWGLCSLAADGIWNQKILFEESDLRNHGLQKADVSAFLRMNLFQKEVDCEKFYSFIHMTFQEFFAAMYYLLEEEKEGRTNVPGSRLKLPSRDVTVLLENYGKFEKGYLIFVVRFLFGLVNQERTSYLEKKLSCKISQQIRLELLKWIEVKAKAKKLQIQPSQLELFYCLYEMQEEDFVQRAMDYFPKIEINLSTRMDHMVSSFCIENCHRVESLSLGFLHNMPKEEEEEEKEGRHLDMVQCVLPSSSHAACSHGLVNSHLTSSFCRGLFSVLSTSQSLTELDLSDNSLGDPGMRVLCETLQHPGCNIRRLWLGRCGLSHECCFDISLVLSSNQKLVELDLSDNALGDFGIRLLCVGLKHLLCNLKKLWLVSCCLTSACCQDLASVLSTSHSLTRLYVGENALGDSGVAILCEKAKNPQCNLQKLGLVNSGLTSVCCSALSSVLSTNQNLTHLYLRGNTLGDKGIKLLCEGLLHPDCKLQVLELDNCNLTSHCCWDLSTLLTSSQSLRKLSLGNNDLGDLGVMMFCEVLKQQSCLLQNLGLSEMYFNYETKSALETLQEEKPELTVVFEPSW

The first experiment addresses T1, NLRP3 (Homo sapiens, UniProt Q96P20).
T1 construct: IL-1β Production in PMA-Differentiated THP-1 Cells Stimulated with Gramicidin; host or cells: THP-1 cells, PMA-differentiated
Description: IL-1β production in PMA-differentiated THP-1 cells stimulated with gramicidin (hTHP-1 assay). Format: cell-based. To be noted: hTHP-1 assay containing 2% fetal bovine serum; average IC50, class symbols; read-out: NLRP3 Antagonist, human THP1 NLRP3, IL-1b, Normalized: GeoMean IC50. As for the experimental part:
IL-1β Production in PMA-Differentiated THP-1 Cells Stimulated with Gramicidin.
THP-1 cells were purchased from the American Type Culture Collection and sub-cultured according to instructions from the supplier. […] Prior to the experiment THP-1 were treated with PMA (Phorbol 12-myristate 13-acetate) (20 ng/ml) for 16-18 hours. On the day of the experiment the media was removed and adherent cells were detached with trypsin for 5 minutes. […] A vehicle only control was run concurrently with each experiment. Final DMSO concentration was 0.38%.
THP-1 cells were purchased from the American Type Culture Collection and sub-cultured according to instructions from the supplier. […] Prior to the experiment THP-1 were treated with PMA (Phorbol 12-myristate 13-acetate) (20 ng/ml) for 16-18 hours. Compounds were dissolved in dimethyl sulfoxide (DMSO) to generate a 30 mM stock. On the day of the experiment the media was removed and adherent cells were detached with trypsin for 5 minutes. […] Final DMSO concentration was at 0.37%. Cells were incubated with compounds for 1 hour and then stimulated with gramicidin (5 μM) (Enzo) for 2 hours. Plates were then centrifuged at 340 g for 5 min. Cell free supernatant (40 μL) was collected using a 96-channel PlateMaster (Gilson) and the production of IL-1p was evaluated by HTRF (cisbio).
IL-1p Production in PMA-Differentiated THP-1 Cells Stimulated with Gramicidin.
THP-1 cells were purchased from the American Type Culture Collection and sub-cultured according to instructions from the supplier. […] Prior to the experiment, compounds were dissolved in dimethyl sulfoxide (DMSO) to generate a 30 mM stock. […] DMSO was backfilled in the plate to achieve a final DMSO assay concentration of 0.37%. The plate was then sealed and stored at room temperature until required.
THP-1 cells were treated with PMA (Phorbol 12-myristate 13-acetate) (20 ng/ml) for 16-18 hours. On the day of the experiment the media was removed and adherent cells were detached with trypsin for 5 minutes. […] The plates were incubated for 18 h at 4° C. and read using the preset HTRF program (donor emission at 620 nm, acceptor emission at 668 nm) of the SpectraMax i3x spectrophotometer (Molecular Devices, software SoftMax 6).
The term IC50 denotes the concentration that gives 50% inhibition. Take `CC(C)c1cc(-c2ccc(Cl)cc2)cc(C(C)C)c1CC(=O)NS(=O)(=O)c1ccc(CN(C)C)cc1` [Compound 116, 2-[4-(4-chlorophenyl)-2,6-di(propan-2-yl)phenyl]-N-[4-[(dimethylamino)methyl]phenyl] sulfonylacetamide]: the IC50 was 1000 to 5000 nM.

Consider `CC(C)c1cc(Cl)cc(C(C)C)c1CC(=O)NS(=O)(=O)c1ccc(CN(C)C)cc1` [Compound 149], for which the IC50 lay within 1000 to 5000 nM.

For `CC(C)c1cc(CC2CCCCC2)cc(C(C)C)c1CC(=O)NS(=O)(=O)c1ccc(CN(C)C)cc1` [Compound 378, 2-[4-(cyclohexylmethyl)-2,6-bis(propan-2-yl)phenyl]-N-{4-[(dimethylamino)methyl]benzenesulfonyl}acetamide], the IC50 was 5000 to 30000 nM.

For the molecule `Cc1ccc(-c2cc(C(C)C)c(CC(=O)NS(=O)(=O)c3ccc(CN(C)C)cc3)c(C(C)C)c2)cc1Cl` [Compound 117, 2-[4-(3-chloro-4-methylphenyl)-2,6-di(propan-2-yl)phenyl]-N-[4-[(dimethylamino)methyl]phenyl] sulfonylacetamide], the IC50 was 200 to 1000 nM.

`C#Cc1cc(C(C)C)c(CC(=O)NS(=O)(=O)c2ccc(C(C)N(C)C)cc2)c(C(C)C)c1` (centres unmarked) [Compound 379]: the IC50 lay within 1000 to 5000 nM.

As to `Cc1cc(-c2cc(C(C)C)c(CC(=O)NS(=O)(=O)c3ccc(CN(C)C)cc3)c(C(C)C)c2)ccc1F` [Compound 101], the IC50 lay in the range of 200 to 1000 nM.

With `CC(C)c1cc(-c2cccc3cccnc23)cc(C(C)C)c1CC(=O)NS(=O)(=O)c1ccc(CN(C)C)cc1` [Compound 114], the IC50 fell in the range of 1000 to 5000 nM.

Regarding `CC(C)c1cc(-c2ccccc2S(C)(=O)=O)cc(C(C)C)c1CC(=O)NS(=O)(=O)c1ccc(CN(C)C)cc1` [Compound 125, N-[4-[(dimethylamino)methyl]phenyl] sulfonyl-2-[4-(2-methylsulfonyl-phenyl)-2,6-di(propan-2-yl)phenyl]acetamide], the IC50 lay within 5000 to 30000 nM.

For `CC(C)c1cc(-c2ccccc2CO)cc(C(C)C)c1CC(=O)NS(=O)(=O)c1ccc(CN(C)C)cc1` [Compound 124, N-[4-[(dimethylamino)methyl]phenyl] sulfonyl-2-[4-[2-(hydroxymethyl)phenyl]-2,6-di(propan-2-yl)phenyl]acetamide], the IC50 was in the range of 5000 to 30000 nM.

As to `CC(C)c1cc(C#CC2CCCCC2)cc(C(C)C)c1CC(=O)NS(=O)(=O)c1ccc(CN(C)C)cc1` [Compound 324, 2-[4-(2-cyclohexylethynyl)-2,6-bis(propan-2-yl)phenyl]-N-{4-[(dimethylamino)methyl]benzene-sulfonyl}acetamide], the 50% inhibitory concentration (IC50) was in the range of 40 to 200 nM.

Consider `Cc1ccc(-c2cc(C(C)C)c(CC(=O)NS(=O)(=O)c3ccc(CN(C)C)cc3)c(C(C)C)c2)cc1F` [Compound 111, N-[4-[(dimethylamino)methyl]phenyl] sulfonyl-2-[4-(3-fluoro-4-methylphenyl)-2,6-di(propan-2-yl)phenyl]acetamide], for which the IC50 fell in the range of 1000 to 5000 nM.

With `C=C(C)c1cc(C(C)C)c(CC(=O)NS(=O)(=O)c2ccc(CN(C)C)cc2)c(C(C)C)c1` [Compound 147], the IC50 fell in the range of 1000 to 5000 nM.

Consider `CC(C)c1cc(-c2ccc(F)c(Cl)c2)cc(C(C)C)c1CC(=O)NS(=O)(=O)c1ccc(CN(C)C)cc1` [Compound 112, 2-[4-(3-chloro-4-fluorophenyl)-2,6-di(propan-2-yl)phenyl]-N-[4-[(dimethylamino)methyl]phenyl] sulfonylacetamide], for which the IC50 lay in the range of 200 to 1000 nM.

Turning to `CC(C)c1cc(C2CCC(C)(C)CC2)cc(C(C)C)c1CC(=O)NS(=O)(=O)c1ccc(CN(C)C)cc1` [Compound 316, N-{4-[(dimethylamino)methyl]benzene-sulfonyl}-2-[4-(4,4-dimethylcyclohexyl)-2,6-bis(propan-2-yl)phenyl]acetamide], the IC50 fell in the range of 1000 to 5000 nM.

For the molecule `Cc1ccc(-c2cc(C(C)C)c(CC(=O)NS(=O)(=O)c3ccc(CN(C)C)cc3)c(C(C)C)c2)cc1` [Compound 110, N-[4-[(dimethylamino)methyl]phenyl] sulfonyl-2-[4-(4-methylphenyl)-2,6-di(propan-2-yl)phenyl] acetamide], the IC50 lay within 1000 to 5000 nM.

With `COc1ccccc1-c1cc(C(C)C)c(CC(=O)NS(=O)(=O)c2ccc(CN(C)C)cc2)c(C(C)C)c1` [Compound 121, N-[4-[(dimethylamino)methyl]phenyl] sulfonyl-2-[4-(2-methoxyphenyl)-2,6-di(propan-2-yl)phenyl] acetamide], the IC50 is 1000 to 5000 nM.

As for `Cc1cc(-c2cc(C(C)C)c(CC(=O)NS(=O)(=O)c3ccc(CN(C)C)cc3)c(C(C)C)c2)ccc1Cl` [Compound 146], the IC50 was 200 to 1000 nM.

On to `CC(C)c1cc(-c2ccc3c(c2)OC(F)(F)O3)cc(C(C)C)c1CC(=O)NS(=O)(=O)c1ccc(CN(C)C)cc1` [Compound 113, 2-[4-(2,2-difluoro-1,3-benzodioxol-5-yl)-2,6-di(propan-2-yl)phenyl]-N-[4-[(dimethylamino)methyl]phenyl] sulfonylacetamide], for which the IC50 fell in the range of 200 to 1000 nM.

`CC(C)c1cc(Br)cc(C(C)C)c1CC(=O)NS(=O)(=O)c1ccc(CN(C)C)cc1` [Compound 148]: the IC50 was in the range of 1000 to 5000 nM.

On to `CC(C)c1cc(C2CCCc3ccccc32)cc(C(C)C)c1CC(=O)NS(=O)(=O)c1ccc(CN(C)C)cc1` (centres unmarked) [Compound 321, 2-[2,6-bis(propan-2-yl)-4-(1,2,3,4-tetrahydronaphthalen-1-yl)phenyl]-N-{4-[(dimethylamino)methyl]benzene-sulfonyl}acetamide], for which the IC50 lay in the range of 1000 to 5000 nM.

On to `CC(C)c1cc(C#CC2CCOCC2)cc(C(C)C)c1CC(=O)NS(=O)(=O)c1ccc(CN(C)C)cc1` [Compound 313, N-{4-[(dimethylamino)methyl]benzene-sulfonyl}-2-{4-[2-(oxan-4-yl)ethynyl]-2,6-bis(propan-2-yl)phenyl}acetamide], for which the IC50 lay in the range of 1000 to 5000 nM.

With `CC(C)c1cc(C2CCc3ccccc3C2)cc(C(C)C)c1CC(=O)NS(=O)(=O)c1ccc(CN(C)C)cc1` (centres unmarked) [Compound 314, 2-[2,6-bis(propan-2-yl)-4-(1,2,3,4-tetrahydronaphthalen-2-yl)phenyl]-N-{4-[(dimethylamino)methyl]benzene-sulfonyl}acetamide], the IC50 fell in the range of 1000 to 5000 nM.

Consider `CC(C)c1cc(CCC2CCCC2)cc(C(C)C)c1CC(=O)NS(=O)(=O)c1ccc(CN(C)C)cc1` [Compound 325, 2-[4-(2-cyclopentylethyl)-2,6-bis(propan-2-yl)phenyl]-N-{4-[(dimethylamino)methyl]benzene-sulfonyl}acetamide], for which the IC50 fell in the range of 1000 to 5000 nM.

For `CC(C)c1cc(C2=CCCC2)cc(C(C)C)c1CC(=O)NS(=O)(=O)c1ccc(CN(C)C)cc1` [Compound 107, 2-[4-(cyclopenten-1-yl)-2,6-di(propan-2-yl)phenyl]-N-[4-[(dimethylamino)methyl]phenyl] sulfonylacetamide], the IC50 was 1000 to 5000 nM.

Still in this experiment, the particulars now being: hTHP-1 assay containing 2% fetal bovine serum; average IC50, given as numeric bound; read-out: NLRP3 Antagonist, human THP1 NLRP3, IL-1b, Normalized: GeoMean IC50.
With `CC(C)c1cc(-c2cnn(C)c2)cc(C(C)C)c1CC(=O)NS(=O)(=O)c1ccc(CN(C)C)cc1` [Compound 106, N-[4-[(dimethylamino)methyl]phenyl] sulfonyl-2-[4-(1-methylpyrazol-4-yl)-2,6-di(propan-2-yl)phenyl] acetamide], the IC50 was > 30000 nM.

`CC(C)c1cc(C(O)c2ccccc2)cc(C(C)C)c1CC(=O)NS(=O)(=O)c1ccc(CN(C)C)cc1` (centres unmarked) [Compound 372, N-{4-[(dimethylamino)methyl]benzenesulfonyl}-2-(4-[hydroxy(phenyl)methyl]-2,6-bis(propan-2-yl)phenyl)acetamide]: the IC50 was > 30000 nM.

For `CC(C)c1cc(C2CCOC2)cc(C(C)C)c1CC(=O)NS(=O)(=O)c1ccc(CN(C)C)cc1` (centres unmarked) [Compound 315, N-{4-[(dimethylamino)methyl]benzene-sulfonyl}-2-[4-(oxolan-3-yl)-2,6-bis(propan-2-yl)phenyl]acetamide], the IC50 was > 30000 nM.

Regarding `CC(C)c1cc(C2=CCCN(C(=O)OC(C)(C)C)C2)cc(C(C)C)c1CC(=O)NS(=O)(=O)c1ccc(CN(C)C)cc1` [Compound 122, tert-butyl 5-[4-[2-[[4-[(dimethylamino)methyl]phenyl]sulfonylamino]-2-oxoethyl]-3,5-di(propan-2-yl)phenyl]-3,6-dihydro-2H-pyridine-1-carboxylate], the IC50 is > 30000 nM.

With `CC(C)c1cc(C(=O)c2ccccc2)cc(C(C)C)c1CC(=O)NS(=O)(=O)c1ccc(CN(C)C)cc1` [Compound 373, 2-[4-benzoyl-2,6-bis(propan-2-yl)phenyl]-N-{4-[(dimethylamino)methyl]benzenesulfonyl}acetamide], the IC50 is > 30000 nM.
